The source made the active and inactive calls.
What was measured:
[1] = inhibitors of intracellular T. cruzi replication, confirmation, NIH3T3 host cells, beta-gal luminescence (AID 2044); type: functional, cell-based;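 further: intracellular parasites grown in NIH/3T3 mouse fibroblasts as host cells; luminescent beta-galactosidase reporter signal from transgenic T. cruzi replicating inside host cells; inhibitors lower the luminescence signal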
[2] = cytotoxicity toward NIH3T3 fibroblasts, dose response, counter-screen, cell-based, ATP luminescence, mouse fibroblasts (AID 2010); type: functional;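 further: cells exposed to compound for about 90 hours before reading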
[3] = cells
[4] = target: Glyceraldehyde-3-phosphate dehydrogenase (Homo sapiens, UniProt P04406)
[5] = target: T1, Bcl-2-related protein A1 (Mus musculus, UniProt Q07440); experiment: Bfl-1 inhibitors blocking BH3 peptide binding, confirmation, biochemical, TR-FRET, mouse Bfl-1 (AID 621);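 further: TR-FRET binding of GST-Bfl-1 to FITC-labelled Bid peptide via terbium antibody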
T1 sequence (Q07440 whole entry): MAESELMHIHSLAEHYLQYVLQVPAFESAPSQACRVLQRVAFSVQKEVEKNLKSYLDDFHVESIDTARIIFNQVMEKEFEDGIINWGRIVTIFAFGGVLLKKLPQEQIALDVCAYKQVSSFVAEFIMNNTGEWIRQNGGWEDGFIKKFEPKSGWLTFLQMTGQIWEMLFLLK

[6] = target: T1, Bcl-2-related protein A1; experiment: Bfl-1 binding inhibitors, SAR follow-up, biochemical, fluorescence polarization (AID 1070)
[7] = target: Ephrin type-A receptor 4 (Mus musculus, UniProt Q03137); experiment: inhibitors of EphA4 binding to KYL peptide, primary screen, biochemical, colorimetric, mouse EphA4 (AID 689); type: functional
[8] = target: E3 ubiquitin-protein ligase Mdm2 (Homo sapiens, UniProt Q00987); experiment: enhancers of MDM2-luciferase reporter signal, concentration-effect titration, project on inhibitors of MDM2 ubiquitin ligase, cellular assay, luminescent readout, 384-well plate format (AID 1394); type: functional;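 further: MDM2 E3 inhibitors raise luminescence so EC50 is for signal enhancement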
[9] = Shn3 3'UTR reporter inhibitors, dose response, cell-based, Clone20 osteoblasts, firefly luciferase, cherry-picked (AID 624132); type: functional;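 further: firefly luciferase luminescence from reporter carrying the Shn3 3'UTR in osteoblasts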
[10] = HepG2 cell cytotoxicity, dose response, cytotoxicity control for Shn3 inhibitor project, CellTiter-Glo, cherry-picked (AID 624134); type: functional, cell-based
[11] = control 3'UTR Renilla luciferase suppression, dose response, counter-screen for Shn3 inhibitor project, cell-based, Clone20-Shn3RL, cherry-picked (AID 624133); type: functional
[12] = target: Sphingosine 1-phosphate receptor 2 (Homo sapiens, UniProt O95136); experiment: Dose Response Cell Based Assay for Antagonists of the S1P2 Receptor. [Related pubchem assays: 856, 736 ]; type: functional
[13] = target: T2, Heat shock factor protein 1 (Mus musculus, UniProt P38532); experiment: inhibition of MG132-induced HSE-luciferase signal, confirmation, cell-based, NIH3T3, luminescence, dose retest (AID 2382); type: functional;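 further: NIH3T3 fibroblasts with HSF1-driven luciferase reporter stressed by proteasome inhibitor MG132; luminescence from HSF1-driven luciferase expression after 8 hours of MG132 stress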
T2 sequence (P38532 whole entry): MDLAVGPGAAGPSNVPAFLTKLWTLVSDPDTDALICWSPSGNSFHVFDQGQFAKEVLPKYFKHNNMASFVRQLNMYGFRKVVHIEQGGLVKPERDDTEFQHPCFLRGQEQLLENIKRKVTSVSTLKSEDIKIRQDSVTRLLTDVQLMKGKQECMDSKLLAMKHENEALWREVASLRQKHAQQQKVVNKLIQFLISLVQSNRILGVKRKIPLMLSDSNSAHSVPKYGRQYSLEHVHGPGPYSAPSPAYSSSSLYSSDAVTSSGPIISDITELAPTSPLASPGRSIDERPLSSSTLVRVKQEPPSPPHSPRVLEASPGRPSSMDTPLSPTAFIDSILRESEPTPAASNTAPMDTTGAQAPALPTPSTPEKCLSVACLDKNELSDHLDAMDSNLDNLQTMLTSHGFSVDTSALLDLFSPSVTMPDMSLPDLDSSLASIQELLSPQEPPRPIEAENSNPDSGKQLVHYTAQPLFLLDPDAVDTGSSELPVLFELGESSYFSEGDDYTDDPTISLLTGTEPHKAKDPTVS

[14] = cytotoxicity in HPDE-C7 cells, cell-based, fluorescence, HTS (AID 430); type: functional; details: Homo sapiens
[15] = cytotoxicity in KRAS-transformed pancreatic duct cells, primary screen, cell-based, fluorescence, HTS (AID 431); type: functional; details: Homo sapiens;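 further: cell line used: HPDE-C7K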
[16] = target: T3, CAAX prenyl protease 2 (Saccharomyces cerevisiae S288c, UniProt Q03530); type: biochemical
T3 sequence (Q03530 whole entry): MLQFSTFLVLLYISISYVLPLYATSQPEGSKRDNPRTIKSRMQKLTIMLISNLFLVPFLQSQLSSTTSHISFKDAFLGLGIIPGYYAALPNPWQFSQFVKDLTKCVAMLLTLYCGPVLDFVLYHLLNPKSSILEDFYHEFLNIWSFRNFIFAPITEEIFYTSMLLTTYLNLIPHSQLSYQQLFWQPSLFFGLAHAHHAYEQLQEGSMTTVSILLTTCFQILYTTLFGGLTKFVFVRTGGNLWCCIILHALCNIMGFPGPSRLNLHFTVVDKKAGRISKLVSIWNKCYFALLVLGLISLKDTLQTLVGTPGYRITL

[17] = Luminescence Cell-Based Dose Confirmation HTS to Identify Activators of 5'UTR Stem-Loop Driven Alpha-Synuclein mRNA Translation in H4 Neuroglioblastoma Cells. [Related pubchem assays: 1829 (Project Summary), 1814 (Primary HTS)]; type: functional
[18] = Luminescence Cell-Based Dose Response HTS to Identify Activators of Luciferase Translation or Activity in H4 […] Cells. [Related pubchem assays: 1829 (Project Summary), 1814 (Primary HTS)]; type: functional
[19] = test system: H4; experiment: Luminescence Cell-Based Dose Response HTS to Identify Activators of 5'UTR Stem-Loop Driven Prion Protein mRNA Translation in H4 Neuroglioblastoma Cells. [Related pubchem assays: 1829 (Project Summary), 1814 (Primary HTS)]; type: functional; details: Homo sapiens
[20] = target: Voltage-gated inwardly rectifying potassium channel KCNH2 (Homo sapiens, UniProt Q12809); experiment: hERG protection from proarrhythmic block, potency, dose response, cell-based, thallium flux (AID 2121); type: ADME
[21] = target: Heat shock protein HSP 90-alpha (Homo sapiens, UniProt P07900); type: functional, organism-based
[22] = target: T4, Aminopeptidase N (Plasmodium falciparum FcB1/Columbia, UniProt O96935); experiment: P. falciparum M1AAP inhibitors, biochemical, fluorogenic H-Leu-NHMec substrate, 1536-well (AID 1445); set-up: species or system Plasmodium falciparum 3D7, 3D7
T4 sequence (O96935 whole entry): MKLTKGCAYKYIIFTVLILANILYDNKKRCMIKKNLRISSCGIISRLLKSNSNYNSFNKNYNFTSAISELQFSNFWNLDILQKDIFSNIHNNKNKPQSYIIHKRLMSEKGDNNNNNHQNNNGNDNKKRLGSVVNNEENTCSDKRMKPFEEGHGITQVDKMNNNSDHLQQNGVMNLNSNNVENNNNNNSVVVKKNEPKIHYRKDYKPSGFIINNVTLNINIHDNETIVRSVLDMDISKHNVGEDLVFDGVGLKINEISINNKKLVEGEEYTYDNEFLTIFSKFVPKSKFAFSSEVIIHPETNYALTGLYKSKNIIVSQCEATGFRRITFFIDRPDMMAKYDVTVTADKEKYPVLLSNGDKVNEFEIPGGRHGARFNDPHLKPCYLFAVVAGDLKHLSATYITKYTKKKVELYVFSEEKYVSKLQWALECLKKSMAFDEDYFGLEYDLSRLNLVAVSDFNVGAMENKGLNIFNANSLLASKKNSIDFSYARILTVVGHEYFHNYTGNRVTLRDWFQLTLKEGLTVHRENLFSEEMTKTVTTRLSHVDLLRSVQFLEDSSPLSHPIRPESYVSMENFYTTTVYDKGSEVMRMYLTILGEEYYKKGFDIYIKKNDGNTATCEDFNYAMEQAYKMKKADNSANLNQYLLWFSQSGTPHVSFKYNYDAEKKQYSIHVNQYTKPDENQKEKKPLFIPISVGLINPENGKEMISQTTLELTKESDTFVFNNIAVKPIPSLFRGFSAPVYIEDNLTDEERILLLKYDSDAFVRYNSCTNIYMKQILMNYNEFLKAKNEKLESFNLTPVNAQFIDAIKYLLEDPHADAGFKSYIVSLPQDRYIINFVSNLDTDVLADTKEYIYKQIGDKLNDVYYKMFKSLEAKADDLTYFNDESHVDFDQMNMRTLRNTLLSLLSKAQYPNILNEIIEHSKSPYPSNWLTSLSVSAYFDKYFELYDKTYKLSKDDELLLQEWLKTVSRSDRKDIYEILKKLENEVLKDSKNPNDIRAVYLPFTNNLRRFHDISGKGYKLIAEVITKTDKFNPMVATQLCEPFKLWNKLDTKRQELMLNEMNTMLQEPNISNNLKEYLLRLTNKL

[23] = test system: Streptococcus sp. 'group A'; experiment: growth inhibition of control SK(-) GAS strain, dose response, counter-screen for streptokinase expression inhibitor project, luminescence, kanamycin, BacTiterGlo, confirmation (AID 1900); type: functional, organism-based
[24] = target: T5, Streptokinase A (Streptococcus pyogenes serotype M1, UniProt P10520); experiment: S. pyogenes streptokinase expression inhibitors, potency, dose response, plasminogen activation absorbance, OD405 (AID 1914); type: functional, Streptococcus pyogenes M1 GAS;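 further: secreted streptokinase activity via plasminogen activation per viability signal from cell pellet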
T5 sequence (P10520 whole entry): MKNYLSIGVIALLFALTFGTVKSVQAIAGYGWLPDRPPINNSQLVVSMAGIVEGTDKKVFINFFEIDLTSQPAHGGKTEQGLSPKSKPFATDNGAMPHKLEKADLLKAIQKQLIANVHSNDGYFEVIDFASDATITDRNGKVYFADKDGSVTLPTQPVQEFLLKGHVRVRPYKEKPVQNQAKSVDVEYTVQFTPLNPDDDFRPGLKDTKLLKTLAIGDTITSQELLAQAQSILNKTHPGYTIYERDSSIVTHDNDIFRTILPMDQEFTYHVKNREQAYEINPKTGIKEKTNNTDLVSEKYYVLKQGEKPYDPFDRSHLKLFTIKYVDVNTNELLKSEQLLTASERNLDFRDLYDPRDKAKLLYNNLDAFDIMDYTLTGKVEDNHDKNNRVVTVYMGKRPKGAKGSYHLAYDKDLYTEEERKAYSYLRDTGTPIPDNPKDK

[25] = target: Bifunctional protein GlmU (Mycobacterium tuberculosis, UniProt P9WMN3); experiment: Inhibitors of Mycobacterial Glucosamine-1-phosphate acetyl transferase (GlmU). Secondary screen.; set-up: species or system Mycobacterium tuberculosis H37Rv
[26] = target: Induced myeloid leukemia cell differentiation protein Mcl-1 (Homo sapiens, UniProt Q07820); type: functional
[27] = test system: Streptococcus; experiment: Group A Streptococcus viability loss, dose response, counter-screen for streptokinase expression inhibitor project, luminescence, BacTiterGlo (AID 1915); type: functional, organism-based;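 further: potency for reduction of bacterial viability or growth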
[28] = target: T6, Probable nicotinate-nucleotide adenylyltransferase (Staphylococcus aureus (strain N315), UniProt P65502); type: functional, Staphylococcus aureus subsp. aureus N315;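 on IC50 Mean: confirmatory dose-response retesting of NadD inhibitor hits first found in an ultra-high-throughput screen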
[29] = target: T6, Probable nicotinate-nucleotide adenylyltransferase; type: functional, Staphylococcus aureus subsp. aureus N315; details: read-out: IC50_Mean

Chain of E3 ubiquitin-protein ligase Mdm2 (Q00987 whole entry): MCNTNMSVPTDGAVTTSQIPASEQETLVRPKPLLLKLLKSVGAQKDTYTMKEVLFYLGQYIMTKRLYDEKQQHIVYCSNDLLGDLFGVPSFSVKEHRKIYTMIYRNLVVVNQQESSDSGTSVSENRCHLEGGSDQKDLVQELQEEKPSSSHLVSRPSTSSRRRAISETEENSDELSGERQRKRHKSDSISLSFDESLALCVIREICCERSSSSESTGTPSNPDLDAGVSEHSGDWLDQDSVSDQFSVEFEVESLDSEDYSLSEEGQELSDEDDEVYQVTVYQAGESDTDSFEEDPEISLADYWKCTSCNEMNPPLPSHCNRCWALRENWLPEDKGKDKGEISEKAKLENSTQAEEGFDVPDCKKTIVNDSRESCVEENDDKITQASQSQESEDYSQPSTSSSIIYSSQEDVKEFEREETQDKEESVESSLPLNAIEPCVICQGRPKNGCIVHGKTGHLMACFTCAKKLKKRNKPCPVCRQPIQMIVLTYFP
Chain of Glyceraldehyde-3-phosphate dehydrogenase (P04406 whole entry): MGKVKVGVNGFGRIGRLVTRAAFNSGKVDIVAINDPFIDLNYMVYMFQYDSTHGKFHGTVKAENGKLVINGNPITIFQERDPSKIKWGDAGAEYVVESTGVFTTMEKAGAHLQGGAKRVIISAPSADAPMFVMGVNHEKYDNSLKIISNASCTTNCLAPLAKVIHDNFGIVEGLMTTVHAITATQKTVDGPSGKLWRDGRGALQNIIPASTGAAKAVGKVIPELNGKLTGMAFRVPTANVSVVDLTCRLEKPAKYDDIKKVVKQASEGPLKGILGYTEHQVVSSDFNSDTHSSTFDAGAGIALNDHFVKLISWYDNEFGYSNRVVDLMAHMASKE
Chain of Voltage-gated inwardly rectifying potassium channel KCNH2 (Q12809 whole entry): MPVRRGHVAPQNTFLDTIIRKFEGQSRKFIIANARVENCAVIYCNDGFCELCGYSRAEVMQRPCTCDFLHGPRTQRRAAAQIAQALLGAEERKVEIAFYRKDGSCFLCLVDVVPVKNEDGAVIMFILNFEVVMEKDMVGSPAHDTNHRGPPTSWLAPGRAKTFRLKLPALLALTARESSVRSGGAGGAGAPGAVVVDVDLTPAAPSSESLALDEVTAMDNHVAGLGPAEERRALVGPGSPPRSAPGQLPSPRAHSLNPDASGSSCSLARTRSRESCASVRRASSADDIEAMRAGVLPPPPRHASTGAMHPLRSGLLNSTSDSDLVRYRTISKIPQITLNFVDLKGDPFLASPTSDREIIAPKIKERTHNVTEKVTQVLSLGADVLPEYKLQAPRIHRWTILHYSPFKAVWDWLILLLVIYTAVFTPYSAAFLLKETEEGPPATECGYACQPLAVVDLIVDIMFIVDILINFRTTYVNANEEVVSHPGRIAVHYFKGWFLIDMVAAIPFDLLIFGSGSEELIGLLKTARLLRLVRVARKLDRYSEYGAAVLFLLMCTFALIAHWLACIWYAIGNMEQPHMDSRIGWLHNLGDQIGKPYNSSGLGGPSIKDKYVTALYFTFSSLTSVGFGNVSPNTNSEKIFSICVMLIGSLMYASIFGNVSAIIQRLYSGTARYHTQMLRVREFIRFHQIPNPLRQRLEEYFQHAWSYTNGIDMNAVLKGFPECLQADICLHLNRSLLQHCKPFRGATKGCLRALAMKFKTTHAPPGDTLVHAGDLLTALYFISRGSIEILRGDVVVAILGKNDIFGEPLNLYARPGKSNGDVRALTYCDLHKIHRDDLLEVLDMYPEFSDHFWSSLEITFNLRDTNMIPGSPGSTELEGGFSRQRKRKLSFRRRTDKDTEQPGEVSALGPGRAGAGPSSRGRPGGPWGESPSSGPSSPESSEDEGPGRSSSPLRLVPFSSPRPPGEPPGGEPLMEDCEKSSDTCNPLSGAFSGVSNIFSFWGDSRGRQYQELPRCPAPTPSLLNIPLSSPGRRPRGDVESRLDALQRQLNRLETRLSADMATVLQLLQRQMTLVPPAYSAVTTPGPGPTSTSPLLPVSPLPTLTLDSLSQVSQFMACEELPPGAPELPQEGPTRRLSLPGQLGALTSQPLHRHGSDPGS
T6 sequence (P65502 whole entry): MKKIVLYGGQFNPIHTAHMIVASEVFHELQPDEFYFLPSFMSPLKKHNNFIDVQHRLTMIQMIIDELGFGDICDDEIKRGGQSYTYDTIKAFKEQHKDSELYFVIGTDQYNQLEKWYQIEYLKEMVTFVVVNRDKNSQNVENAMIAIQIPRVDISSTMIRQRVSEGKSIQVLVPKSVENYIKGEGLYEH
Chain of Ephrin type-A receptor 4 (Q03137 whole entry): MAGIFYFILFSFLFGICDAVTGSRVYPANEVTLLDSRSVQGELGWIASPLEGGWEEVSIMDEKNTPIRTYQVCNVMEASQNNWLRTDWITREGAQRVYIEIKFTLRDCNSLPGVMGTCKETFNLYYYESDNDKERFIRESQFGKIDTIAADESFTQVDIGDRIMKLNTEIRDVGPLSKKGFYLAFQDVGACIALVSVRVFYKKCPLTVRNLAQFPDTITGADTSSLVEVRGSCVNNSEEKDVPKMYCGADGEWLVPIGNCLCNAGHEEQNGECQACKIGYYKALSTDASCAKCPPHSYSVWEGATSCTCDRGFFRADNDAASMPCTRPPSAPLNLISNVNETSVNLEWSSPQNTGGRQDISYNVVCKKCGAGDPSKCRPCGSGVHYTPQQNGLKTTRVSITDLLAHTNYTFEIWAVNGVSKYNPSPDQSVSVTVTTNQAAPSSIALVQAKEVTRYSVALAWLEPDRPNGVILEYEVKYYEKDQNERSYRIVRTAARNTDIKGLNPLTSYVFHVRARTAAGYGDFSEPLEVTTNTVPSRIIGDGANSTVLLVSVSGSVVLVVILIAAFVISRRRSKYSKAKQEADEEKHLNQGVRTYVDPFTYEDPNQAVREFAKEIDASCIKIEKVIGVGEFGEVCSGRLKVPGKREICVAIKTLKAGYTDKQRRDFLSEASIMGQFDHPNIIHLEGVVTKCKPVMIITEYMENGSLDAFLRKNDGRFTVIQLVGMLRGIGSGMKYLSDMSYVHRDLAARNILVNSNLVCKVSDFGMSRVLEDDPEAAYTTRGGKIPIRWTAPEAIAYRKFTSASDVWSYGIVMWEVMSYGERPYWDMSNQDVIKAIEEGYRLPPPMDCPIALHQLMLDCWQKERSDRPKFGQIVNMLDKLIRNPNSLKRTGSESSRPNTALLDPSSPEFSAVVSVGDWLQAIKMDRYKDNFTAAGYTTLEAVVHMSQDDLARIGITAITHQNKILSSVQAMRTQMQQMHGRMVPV
Chain of Sphingosine 1-phosphate receptor 2 (O95136 whole entry): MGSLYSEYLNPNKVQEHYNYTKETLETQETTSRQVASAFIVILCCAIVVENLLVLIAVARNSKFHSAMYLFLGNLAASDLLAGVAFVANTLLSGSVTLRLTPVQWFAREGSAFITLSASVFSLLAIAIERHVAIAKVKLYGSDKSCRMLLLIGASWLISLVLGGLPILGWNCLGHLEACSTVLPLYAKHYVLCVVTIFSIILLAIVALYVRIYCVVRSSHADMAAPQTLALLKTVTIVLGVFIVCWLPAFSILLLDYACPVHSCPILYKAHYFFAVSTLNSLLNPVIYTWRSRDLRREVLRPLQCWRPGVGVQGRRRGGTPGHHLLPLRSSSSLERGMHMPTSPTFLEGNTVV
Chain of Bifunctional protein GlmU (P9WMN3 whole entry): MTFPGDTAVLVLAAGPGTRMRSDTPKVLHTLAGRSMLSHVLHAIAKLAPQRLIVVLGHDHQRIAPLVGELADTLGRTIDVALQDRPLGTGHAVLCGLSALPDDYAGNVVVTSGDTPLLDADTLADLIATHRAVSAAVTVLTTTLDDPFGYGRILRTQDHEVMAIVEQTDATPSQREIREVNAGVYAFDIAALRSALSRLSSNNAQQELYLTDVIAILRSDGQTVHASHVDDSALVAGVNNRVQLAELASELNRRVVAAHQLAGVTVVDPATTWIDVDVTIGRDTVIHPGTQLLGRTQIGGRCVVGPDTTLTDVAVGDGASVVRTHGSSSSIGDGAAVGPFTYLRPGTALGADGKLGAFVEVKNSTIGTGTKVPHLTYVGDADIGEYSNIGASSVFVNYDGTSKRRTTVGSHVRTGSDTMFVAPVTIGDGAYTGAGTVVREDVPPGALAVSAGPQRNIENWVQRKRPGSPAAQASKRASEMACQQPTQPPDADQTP
Chain of Induced myeloid leukemia cell differentiation protein Mcl-1 (Q07820 whole entry): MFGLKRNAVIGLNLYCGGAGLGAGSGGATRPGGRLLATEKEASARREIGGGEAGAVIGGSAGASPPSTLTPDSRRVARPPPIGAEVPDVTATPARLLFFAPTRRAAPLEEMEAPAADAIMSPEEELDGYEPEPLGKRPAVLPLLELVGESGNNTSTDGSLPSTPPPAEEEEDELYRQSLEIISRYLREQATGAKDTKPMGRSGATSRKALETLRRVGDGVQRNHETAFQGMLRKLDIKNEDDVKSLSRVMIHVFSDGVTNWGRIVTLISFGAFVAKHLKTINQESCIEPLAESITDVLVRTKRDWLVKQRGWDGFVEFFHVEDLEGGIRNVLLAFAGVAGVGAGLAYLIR

COc1ccc(C(=O)OC2CCN(C)CC2)cc1
EC50 [1]: < 0.1 µM (active) | EC50 [2]: > 60 µM (not active) | EC50 [3]: 0.077 µM (active)

NCCN1CCN(C2=C(Cl)C(=O)N(c3ccc(Cl)c(Cl)c3)C2=O)CC1
IC50 [4]: > 100 µM (not active) | IC50 [5]: > 100 µM (not active) | IC50 [6]: > 100 µM (not active)

CC1CCCN(c2nc3ccccc3nc2C(C#N)C(=O)OC2CCCCC2)C1 (stereo not given)
IC50 [7]: 9.81 µM (active)

Cc1cc(C)nc(S/C=C/C(=O)c2ccccc2)n1
EC50 [8]: 1.32 µM (active) | AC50 [9]: 1.72 µM (active) | AC50 [10]: 42.4 µM (active) | AC50 [11]: 9.3 µM (active)

CCCC(=O)N1CCN(c2ccc(NC(=O)c3cc4ccccc4o3)cc2Cl)CC1
IC50 [12]: 4.67 µM (active) | EC50 [13]: 7.51 µM (active) | EC50 [14]: 7.87 µM (active) | EC50 [15]: 7.44 µM (active) | AC50 [16]: 11.5 µM (active) | AC50 [9]: 4.1 µM (active) | AC50 [10]: 7.37 µM (active) | AC50 [11]: 8.96 µM (active)

O=C1C(Cl)=C(N2CCN(c3ccccc3F)CC2)C(=O)N1c1ccc(Cl)c(Cl)c1
IC50 [4]: > 100 µM (not active) | IC50 [5]: > 100 µM (not active) | IC50 [6]: > 100 µM (not active)

COc1cccc([C@@H]2Oc3ccc(OC)cc3C(=O)[C@H]2OC(=O)NCc2ccc3c(c2)OCO3)c1
EC50 [17]: 16.3 µM (active) | EC50 [18]: 16.6 µM (active) | EC50 [19]: 46.4 µM (active) | EC50 [20]: 4.06 µM (active)

COc1ccc(N2CCN(C(CNC(=O)Oc3ccccc3)c3cccnc3)CC2)cc1 (stereo not given)
EC50 [1]: < 0.1 µM (active) | EC50 [2]: > 30 µM (not active) | EC50 [3]: 0.087 µM (active)

O=C(CCSc1ccc(Br)cc1)c1ccc(O)cc1
EC50 [20]: 1.17 µM (active) | AC50 [21]: 1.81 µM (active)

COc1ccc(C2C(C(=O)N3CCCCC3)CCC(=O)N2c2cc(OC)c(OC)c(OC)c2)cc1 (stereo not given)
EC50 [8]: 47.1 µM (not active)

O=C(N/N=C/c1ccc(-c2ccc(Cl)c(C(=O)O)c2)o1)c1cc2c(ccc3ccccc32)o1
IC50 [22]: 9.45 µM (active) | EC50 [23]: 3.13 µM (active) | EC50 [24]: > 150 µM (not active) | IC50 [25]: 58.8 µM (active) | IC50 [26]: 1.55 µM (active) | EC50 [27]: 66.6 µM (inconclusive) | IC50 [28]: 3.91 µM (active) | IC50 [29]: 10.7 µM (active)

— ChEMBL document CHEMBL1201862, “PubChem BioAssay data set” (2004)
